The values below come from article PMC5983823, “Screening of Natural Product Derivatives Identifies Two Structurally Related Flavonoids as Potent Quorum Sensing Inhibitors against Gram-Negative Bacteria” (International Journal of Molecular Sciences, 2018).

The subject of one assay is C. violaceum CV026. Briefly: Violacein extraction assay (QS-mediated violacein production), mutant strain with exogenous autoinducer. In kind it is cell-based, Chromobacterium violaceum. To be noted: Chromobacterium violaceum, CV026, 24 h, read-out: Inhibition-% of violacein production. The method, then: (§1) The initial screening of compound library was conducted using two strains of C. violaceum as model bacterium, and two assays (violacein extraction and resazurin staining) in parallel as recently optimized in [26]. For the screening assays, overnight cultures of C. violaceum were diluted in LB broth supplemented with yeast extract (LBY) (0.1% w/v, Sigma Aldrich, St. Louis, MO, USA). Culture of C. violaceum CV026 was further supplemented with 0.5 µM N-(β-ketocaproyl)-L-Homoserine lactone (3-O-C6-(L)-HSL, Cayman chemicals, Ann Arbor, MI, USA) to induce the violacein production. Bacteria (10^6 CFU/mL) was exposed to compounds (400 µM) in a total volume of 200 µL in 96-microtiter well plates (Nunc, Roskilde, Denmark), and incubated at 27 °C, with shaking at 200 rpm for 24 h. DMSO was added in untreated control wells and bacteria-free wells with only LBY were included controls. Additionally, autoinducer-free wells containing only bacteria were included in C. violaceum CV026 plates. Plates were prepared in duplicates. Quercetin dihydrate (Carl Roth GmbH, Karlsruhe, Germany) at 400 µM was used as positive control in violacein extraction assay, and azithromycin (Cayman chemicals, Ann Arbor, MI, USA) at 10 µM in viability assay. Both control compounds were prepared in DMSO. DMSO concentration was 2.5% throughout the experiments.
(§2) After incubation period of 24 h, plates were centrifuged (Allegra™ X-12R Benchtop centrifuge, Beckman Coulter Inc., Fullerton, CA, USA) at 3000 rpm for 10 min to precipitate the violacein. Supernatants were discarded from the wells by pipetting, and pellets were re-suspended in 200 μL of 96% ethanol by scraping and mixing followed by centrifugation (3000 rpm, 10 min). Thereafter, 100 μL of supernatants were transferred to sterile 96-microtiter well plates, and violacein was quantified by reading the optical density at 595 nm using Varioskan Flash. Inhibition of violacein production was expressed as inhibition percentages of the untreated biofilms (Equation (1)):Inhibition-% = [(untreated control OD595 − sample OD595)/(untreated control OD595 − media control OD595)] × 100%(1) in which untreated control = C. violaceum + DMSO, media control = LBY, and sample = C. violaceum treated with a compound. Later on, violacein extraction assay was also utilized for the determination of half inhibitory concentrations of the compounds.

For assay [1], the system named is P. aeruginosa PAO1. Briefly: Crystal violet staining assay, transition from microcolonies to fully formed biofilms. In kind it is cell-based. As to conditions: Pseudomonas aeruginosa, P. aeruginosa PAO1, mean ± SD, read-out: Inhibitory activity on the transition from microcolonies to fully formed biofilms. The method, then: (§3) Crystal violet-based biomass staining assay was performed to assess the effects of the compounds on the transition from microcolonies to fully formed as recently described in [26] with minor modifications. Briefly, diluted cultures of exponentially grown P. aeruginosa ATCC 9027, ATCC 15442 and PA01, and E. coli K-12 (10^6 CFU/mL) were added to the 96-microtiter well plates (200 µL per well) to form microcolonies for two hours (37 °C). At the end of this period, bacterial suspensions were removed, compounds at a final concentration of 400 µM and fresh LB media were added, and plates were incubated at 37 °C, with shaking (200 rpm) for additional 22 h. After the incubation period, media was discarded and the biofilms were washed once with sterile Milli-Q (MQ)-water. Biomass was fixed with methanol for 15 min followed by staining with 0.23% (v/v) crystal violet (Sigma-Aldrich, Munich, Germany) solution prepared in MQ-water (200 µL per well) for 5 min. Thereafter, wells were washed twice with MQ-water and 200 µL of 96% ethanol was added to the wells. Absorbance was measured at 595 nm using Varioskan Flash after 1 h.

Another assay relates to P. aeruginosa ATCC 15422. The description is as above. To be noted: Pseudomonas aeruginosa, ATCC15422, read-out: Inhibitory activity on the transition from microcolonies to fully formed biofilms. In kind it is cell-based. The method, then: as §3
Another assay concerns E. coli K-12. The assay is described as above. Type of assay: cell-based. To be noted: Escherichia coli, K12, E. coli K-12, mean ± SD, read-out: Inhibitory activity on the transition from microcolonies to fully formed biofilms. The method, then: as §3
A further assay has as its system P. aeruginosa ATCC 9027. The assay is described as above. Type of assay: cell-based. To be noted: Pseudomonas aeruginosa, ATCC9027, P. aeruginosa ATCC 9027, mean ± SD, read-out: Inhibitory activity on the transition from microcolonies to fully formed biofilms. The method, then:
as §3

The test system of assay [2] is Staphylococcus aureus biofilms. The arrangement: method as in PMID 24071942. To be noted: cited from earlier work.
Assay [3] concerns P. aeruginosa PAO1. Briefly: Swarming motility assay. Type of assay: cell-based. As to conditions: Pseudomonas aeruginosa, PAO1, read-out: Inhibition of swarming motility. The method, then: Assays were performed according to the protocols previously described in [30, 74] with some modifications. The swarming agar was prepared in MQ-water consisting of 0.3% (w/v) agar, 1% (w/v) peptone, 0.5% (w/v) yeast extract and 0.5% (w/v) sodium chloride, and the swimming agar similarly but without yeast extract. Compounds at a final concentration of 400 µM and 100 µM were pre-mixed with 5 mL of agar, and poured over solidified LB agar plates (10 mL/petri dish) as overlays. The plates were allowed to dry at 30 °C for three hours followed by point inoculation with 2 µL of P. aeruginosa PAO1 (~10^8 CFU/mL) and incubation at 37 °C for 18 h. Quercetin was used as a control. Diameters of the swarming and swimming zones were measured after the incubation periods.

The test system of another assay is C. violaceum ATCC 31532. The assay can be described thus: Violacein extraction assay (QS-mediated violacein production). In kind it is cell-based, Chromobacterium violaceum. As to conditions: Chromobacterium violaceum; for inhibition at 400 µM: ATCC31532, 24 h, primary screening, 24 h, C. violaceum ATCC 31532, read-out: Inhibition-% of violacein production; for IC50: ATCC31532, C. violaceum ATCC 31532, 15 concentration points, read-out: IC50 of violacein production. The method, then: as §1, §2

Assay [4] concerns P. aeruginosa (ATCC 9027, ATCC 15422 and PA01). Briefly: Viable plate counts (bacterial growth). Type of assay: cell-based, Pseudomonas aeruginosa. As to conditions: 100 and 400 µM, 24 h. The method, then: Effects of the leads on bacterial growth were assessed by performing viable plate counts. Compounds at final concentrations of 100 and 400 µM and cultures of P. aeruginosa (ATCC 9027, ATCC 15422 and PA01) and E. coli K-12 (10^6 CFU/mL) were simultaneously added to the 96-microtiter well plates (200 µL per well). Untreated bacteria were included in control wells. The plates were incubated at 37 °C, without shaking for 24 h. At the end of this period, bacterial suspensions were transferred from the wells to Eppendorf tubes, and the tubes were sonicated for 10 min (25 °C, 35 kHz, Sonorex Digitec water bath (Bandelin, Zurich, Switzerland)). Each suspension was serially diluted in LB and plated on LB agar. The number of viable bacteria in each test concentration was counted after overnight incubation at 37 °C. Results were expressed as CFU/mL.

A word on the IC50: it is the concentration that inhibits the measured activity by half. In the case of `CCC(=O)Oc1c(-c2ccccc2Cl)oc2ccccc2c1=O` [Compound 2117, 2-(2-chlorophenyl)-4-oxochromen-3-yl propanoate], the inhibition at 400 µM in the assay on C. violaceum CV026 stood at 102%; in the assay with P. aeruginosa PAO1 [1] it was 42.3 ± 12.4%; with P. aeruginosa ATCC 15422, 11.2 ± 1.8%; in the assay on E. coli K-12 it was 51.3 ± 6.9%; in the assay on P. aeruginosa ATCC 9027, 27.2 ± 6%; in the assay with P. aeruginosa PAO1 [3], 72.1%. Besides, in the assay with C. violaceum ATCC 31532, the inhibition at 400 µM stood at 102%. Besides, in [2], the “Anti-biofilm activity against S. aureus” value was “inactives”. The IC50 with C. violaceum ATCC 31532 worked out at 9.6 µM. Moreover, the “Bactericidal activity by viable plate counts” value in assay [4] is “Neither of the leads displayed any bactericidal activity”.
Turning to `CCCCCCCCCC(=O)Oc1c(-c2ccc(OC)cc2)oc2ccccc2c1=O` [Compound 2896, 2-(4-methoxyphenyl)-4-oxochromen-3-yl decanoate], the inhibition at 400 µM was 91.2% with C. violaceum CV026; 11.6 ± 11.1% in the assay with P. aeruginosa PAO1 [1]; 28.1 ± 15.1% in the assay with P. aeruginosa ATCC 15422; 14.3 ± 10.1% with E. coli K-12; 22.5 ± 3.2% with P. aeruginosa ATCC 9027; 69.8% in the assay on P. aeruginosa PAO1 [3]. The inhibition at 400 µM in the assay on C. violaceum ATCC 31532 was found to be 94.5%. For the same compound, the “Anti-biofilm activity against S. aureus” value in assay [2] is “inactives”. In addition, in the assay with C. violaceum ATCC 31532, the IC50 is 13.9 µM. Besides, the “Bactericidal activity by viable plate counts” value in [4] was “Neither of the leads displayed any bactericidal activity”.
